The record followed here is ChEMBL document CHEMBL1155624, “Steroidal glycosides from the aerial parts of Polianthes tuberosa” (J Nat Prod, 2000).

≈ marks a conversion by molar mass, not a printed value. Where only a bound is given, the exact number is not on record here.

The test system of this test is HL-60. Put plainly: Cytotoxicity against human HL60 cells by MTT reduction assay. It is filed as functional, cell-based.
`CC1CC[C@@]2(OC1)O[C@H]1C[C@H]3[C@@H]4CC[C@H]5C[C@@H](O[C@@H]6O[C@H](CO)[C@H](O[C@@H]7O[C@H](CO)[C@@H](O)[C@H](O[C@@H]8OC[C@@H](O)[C@H](O)[C@H]8O)[C@H]7O[C@@H]7O[C@H](CO)[C@@H](O)[C@H](O[C@@H]8OC[C@@H](O)[C@H](O)[C@H]8O)[C@H]7O)[C@H](O)[C@H]6O)CC[C@]5(C)C4=CC(=O)[C@]3(C)[C@H]1[C@@H]2C` (some centres undefined) came in with an IC50 of 6.1 µg/mL (≈ 5.17 µM).
The molecule `CC(C)CC[C@H](O)[C@@H](C)[C@H]1[C@@H](O[C@@H]2OC[C@](O)(CO)[C@H]2O)C[C@H]2[C@@H]3CC=C4C[C@@H](O)C[C@@H](O[C@@H]5O[C@H](CO)[C@@H](O)[C@H](O)[C@H]5O)[C@]4(C)[C@H]3CC[C@]12C` registered an IC50 greater than 10 µg/mL.
As for `CC1CC[C@@]2(OC1)O[C@H]1C[C@H]3[C@@H]4CC[C@H]5C[C@@H](O[C@@H]6O[C@H](CO)[C@H](O[C@@H]7O[C@H](CO)[C@@H](O)[C@H](O[C@@H]8OC[C@@H](O)[C@H](O)[C@H]8O)[C@H]7O[C@@H]7O[C@H](CO)[C@@H](O)[C@H](O[C@@H]8OC[C@@H](O)[C@H](O)[C@H]8O)[C@H]7O)[C@H](O)[C@H]6O)CC[C@]5(C)[C@H]4CC(=O)[C@]3(C)[C@H]1[C@@H]2C` (some centres undefined), the figure is 3.2 µg/mL (≈ 2.71 µM); as for `CC1CC[C@@]2(OC1)O[C@H]1C[C@H]3[C@@H]4C[C@H](O)[C@H]5C[C@@H](O[C@@H]6O[C@H](CO)[C@H](O[C@@H]7O[C@H](CO)[C@@H](O)[C@H](O[C@@H]8OC[C@@H](O)[C@H](O)[C@H]8O)[C@H]7O[C@@H]7O[C@H](CO)[C@@H](O)[C@H](O[C@@H]8OC[C@@H](O)[C@H](O)[C@H]8O)[C@H]7O)[C@H](O)[C@H]6O)CC[C@]5(C)[C@H]4CC[C@]3(C)[C@H]1[C@@H]2C` (some centres undefined), 2.6 µg/mL (≈ 2.2 µM).
